We go through 11 compounds from patent US12162820B2 (TAIWANJ PHARMACEUTICALS CO., LTD., priority 2019, dated 2024).

What all share (format): biochemical
Assay [1] has as its target T1, HDAC1 (Homo sapiens, UniProt Q13547).
T1 construct: purchased Enzo Life Sciences
Description: HDAC Inhibition Screening Assay (FLUOR DE LYS Fluorimetric Drug Discovery Kit), HDAC1. To be noted: for inhibition at 2 µM: 2 μM compound; for inhibition at 10 µM: 10 μM compound; for inhibition at 50 µM: 50 μM compound. The method, boiled down: (§1)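 Recombinant HDAC1, HDAC2 or HDAC3 was incubated with an acetyl-lysine fluorogenic substrate, and a developer was then added to release the fluorophore. Compounds were tested at 2, 10 and 50 μM, with fluorescence read at 360 or 485 nm excitation and 460 or 530 nm emission. Activity was expressed as a percentage of basal control minus baseline.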

Assay [2] deals with T2, HDAC2 (Homo sapiens, UniProt Q92769).
T2 construct: purchased Enzo Life Sciences
Description: HDAC Inhibition Screening Assay (FLUOR DE LYS Fluorimetric Drug Discovery Kit), HDAC2. The settings on record: for inhibition at 2 µM: 2 μM compound; for inhibition at 10 µM: 10 μM compound; for inhibition at 50 µM: 50 μM compound. The method, boiled down:
as §1

The target in assay [3] is T3, HDAC3 (Homo sapiens, UniProt O15379).
T3 construct: purchased Enzo Life Sciences
Briefly: HDAC Inhibition Screening Assay (FLUOR DE LYS Fluorimetric Drug Discovery Kit), HDAC3. To be noted: for inhibition at 2 µM: 2 μM compound; for inhibition at 10 µM: 10 μM compound; for inhibition at 50 µM: 50 μM compound. Put shortly: as §1

Assay [4] has as its target T4, ATX (autotaxin) (Homo sapiens, UniProt Q13822).
T4 construct: purchased Cayman 10803
Briefly: Autotaxin Inhibition Screening Assay (choline release from LPC, LPC-CR). To be noted: for inhibition at 4 µM: 4 μM compound; for inhibition at 20 µM: 20 μM compound; for inhibition at 50 µM: 50 μM compound. The method, boiled down:
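Released choline from 100 μM 14:0 LPC, detected via choline oxidase–HRP–homovanillic acid fluorescence (320/450 nm) kinetically over 90 min, reports activity of 20 ng ATX. Buffer: 50 mM Tris pH 8.0, 50 mM CaCl2, 0.01% Triton X-100; test compounds 4, 20, 50 μM; percent inhibition from blank-subtracted slopes relative to vehicle.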

T2 sequence (Q92769 whole entry): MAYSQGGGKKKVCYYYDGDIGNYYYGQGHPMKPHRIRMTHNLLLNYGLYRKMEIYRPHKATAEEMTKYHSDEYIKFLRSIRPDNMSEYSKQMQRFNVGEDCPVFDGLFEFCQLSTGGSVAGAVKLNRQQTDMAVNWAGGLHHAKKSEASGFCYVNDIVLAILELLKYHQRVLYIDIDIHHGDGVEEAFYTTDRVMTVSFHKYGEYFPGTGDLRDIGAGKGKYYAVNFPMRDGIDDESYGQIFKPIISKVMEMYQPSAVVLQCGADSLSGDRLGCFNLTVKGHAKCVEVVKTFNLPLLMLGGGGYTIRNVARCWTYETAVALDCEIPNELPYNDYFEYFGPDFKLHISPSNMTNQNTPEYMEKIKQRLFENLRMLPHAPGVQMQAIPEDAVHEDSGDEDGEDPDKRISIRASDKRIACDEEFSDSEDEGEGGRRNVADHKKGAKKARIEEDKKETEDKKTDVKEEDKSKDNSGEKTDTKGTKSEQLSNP
T3 sequence (O15379 whole entry): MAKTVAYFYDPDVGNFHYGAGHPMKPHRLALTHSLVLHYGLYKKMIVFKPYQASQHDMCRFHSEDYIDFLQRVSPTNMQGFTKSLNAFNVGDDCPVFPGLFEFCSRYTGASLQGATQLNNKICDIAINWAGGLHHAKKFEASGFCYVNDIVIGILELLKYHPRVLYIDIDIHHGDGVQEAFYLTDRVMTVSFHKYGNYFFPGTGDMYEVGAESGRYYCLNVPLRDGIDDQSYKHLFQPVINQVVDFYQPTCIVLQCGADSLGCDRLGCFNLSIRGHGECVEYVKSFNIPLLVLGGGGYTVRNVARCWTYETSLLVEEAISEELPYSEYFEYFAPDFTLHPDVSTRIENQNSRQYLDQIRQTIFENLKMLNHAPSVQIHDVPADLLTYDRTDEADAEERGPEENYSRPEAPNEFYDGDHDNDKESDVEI
T3 sequence (O75376 395-489 partner limits assumed): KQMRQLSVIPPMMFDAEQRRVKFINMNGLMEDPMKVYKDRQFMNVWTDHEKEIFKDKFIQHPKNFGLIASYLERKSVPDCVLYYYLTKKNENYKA
T1 sequence (Q13547 whole entry): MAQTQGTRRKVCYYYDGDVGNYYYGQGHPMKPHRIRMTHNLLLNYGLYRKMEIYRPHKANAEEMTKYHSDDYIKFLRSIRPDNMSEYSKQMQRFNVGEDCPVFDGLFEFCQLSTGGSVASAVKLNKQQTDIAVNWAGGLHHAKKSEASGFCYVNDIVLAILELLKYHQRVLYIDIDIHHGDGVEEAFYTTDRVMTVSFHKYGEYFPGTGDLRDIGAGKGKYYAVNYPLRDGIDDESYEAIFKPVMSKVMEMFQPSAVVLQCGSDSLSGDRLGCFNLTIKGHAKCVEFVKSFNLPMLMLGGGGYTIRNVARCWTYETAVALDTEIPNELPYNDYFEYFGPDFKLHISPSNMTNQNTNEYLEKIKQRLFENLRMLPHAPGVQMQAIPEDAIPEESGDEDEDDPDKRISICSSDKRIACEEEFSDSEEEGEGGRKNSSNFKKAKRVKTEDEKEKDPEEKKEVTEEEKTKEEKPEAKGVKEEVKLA

The term inhibition denotes the relative decrease from the control value, in per cent. On to `Nc1ccccc1NC(=O)c1ccc(COc2ccc3c(c2)CC/C(=C\c2cc(C(F)(F)F)cc(C(F)(F)F)c2)C3=O)cc1` [Compound 66, (E)-N-(2-aminophenyl)-4-(((6-(3,5-bis(trifluoromethyl)-benzylidene)-5-oxo-5,6,7,8-tetrahydronaphthalen-2-yl)oxy)methyl)benzamide], for which, in assay [1], the inhibition at 2 µM is below 50%, the inhibition at 10 µM was below 50% and the inhibition at 50 µM was below 50%. Moreover, in assay [2], the inhibition at 2 µM was below 50%, the inhibition at 10 µM is below 50% and the inhibition at 50 µM was below 50%. In addition, in assay [3], the inhibition at 2 µM was below 50%, the inhibition at 10 µM was below 50% and the inhibition at 50 µM was below 50%. In assay [4], this compound yielded an inhibition at 4 µM below 50%, an inhibition at 20 µM below 50% and an inhibition at 50 µM below 50%.

On to `Nc1cc(F)ccc1NC(=O)c1ccc(COc2ccc3c(c2)CCC(Cc2cc(C(F)(F)F)cc(C(F)(F)F)c2)C3=O)cc1` (stereo not drawn) [Compound 67, N-(2-amino-4-fluorophenyl)-4-(((6-(3,5-bis(trifluoromethyl)benzyl)-5-oxo-5,6,7,8-tetrahydronaphthalen-2-yl)oxy)methyl)benzamide], for which, in assay [1], the inhibition at 2 µM is below 50%, the inhibition at 10 µM was below 50% and the inhibition at 50 µM was below 50%. Moreover, in assay [2], the inhibition at 2 µM was below 50%, the inhibition at 10 µM is below 50% and the inhibition at 50 µM was below 50%. In assay [3], the inhibition at 2 µM was below 50%, the inhibition at 10 µM is below 50% and the inhibition at 50 µM was below 50%. In assay [4], this compound gave an inhibition at 4 µM below 50%, an inhibition at 20 µM below 50% and an inhibition at 50 µM below 50%.

For `O=C(NO)c1ccc(COc2ccc3c(c2)CCC(Cc2cc(C(F)(F)F)cc(C(F)(F)F)c2)C3=O)cc1` (stereo not drawn) [Compound 68, 4-(((6-(3,5-bis(trifluoromethyl)benzyl)-5-oxo-5,6,7,8-tetrahydronaphthalen-2-yl)oxy)methyl)-N-hydroxybenzamide], in assay [1], the inhibition at 2 µM was below 50%, the inhibition at 10 µM was below 50% and the inhibition at 50 µM is below 50%. In assay [2], the inhibition at 2 µM was below 50%, the inhibition at 10 µM is below 50% and the inhibition at 50 µM was below 50%. In assay [3], the inhibition at 2 µM is below 50%, the inhibition at 10 µM is below 50% and the inhibition at 50 µM is below 50%. In assay [4], the inhibition at 4 µM is below 50%, the inhibition at 20 µM is below 50% and the inhibition at 50 µM is below 50%.

With `Nc1cc(F)ccc1NC(=O)/C=C/c1ccc(COc2ccc3c(c2)CCCC3=O)cc1` [Compound 69, (E)-N-(2-amino-4-fluorophenyl)-3-(4-(((5-oxo-5,6,7,8-tetra-hydronaphthalen-2-yl)oxy)methyl)phenyl)acrylamide], in assay [1], the inhibition at 2 µM is below 50%, the inhibition at 10 µM was below 50% and the inhibition at 50 µM was below 50%. In assay [2], the inhibition at 2 µM is below 50%, the inhibition at 10 µM was below 50% and the inhibition at 50 µM was 50 to 80%. Also, in assay [3], the inhibition at 2 µM is below 50%, the inhibition at 10 µM was below 50% and the inhibition at 50 µM was below 50%. In assay [4], this compound displayed an inhibition at 4 µM below 50%, an inhibition at 20 µM below 50% and an inhibition at 50 µM below 50%.

`O=C(/C=C/c1ccc(COc2ccc3c(c2)CCCC3=O)cc1)NO` [Compound 70, (E)-N-hydroxy-3-(4-(((5-oxo-5,6,7,8-tetrahydronaphthalen-2-yl)oxy)-methyl)phenyl)acrylamide]: in assay [1], the inhibition at 2 µM lay in the range of 50 to 80%, the inhibition at 10 µM is above 80% and the inhibition at 50 µM is above 80%. In assay [2], the inhibition at 2 µM was above 80%, the inhibition at 10 µM was above 80% and the inhibition at 50 µM was above 80%. Besides, in assay [3], the inhibition at 2 µM is above 80%, the inhibition at 10 µM is above 80% and the inhibition at 50 µM was above 80%. For the same compound, in assay [4], the inhibition at 4 µM was below 50%, the inhibition at 20 µM was 50 to 80% and the inhibition at 50 µM lay in the range of 50 to 80%.

As to `Nc1cc(F)ccc1NC(=O)/C=C/c1ccc(COc2ccc3c(c2)CC/C(=C\c2cc(C(F)(F)F)cc(C(F)(F)F)c2)C3=O)cc1` [Compound 71], in assay [1], the inhibition at 2 µM was below 50%, the inhibition at 10 µM was below 50% and the inhibition at 50 µM is below 50%. In assay [2], the inhibition at 2 µM is below 50%, the inhibition at 10 µM was below 50% and the inhibition at 50 µM is below 50%. For the same compound, in assay [3], the inhibition at 2 µM was below 50%, the inhibition at 10 µM was below 50% and the inhibition at 50 µM was below 50%. For the same compound, in assay [4], the inhibition at 4 µM is below 50%, the inhibition at 20 µM was below 50% and the inhibition at 50 µM was below 50%.

For the compound `O=C(/C=C/c1ccc(COc2ccc3c(c2)CC/C(=C\c2cc(C(F)(F)F)cc(C(F)(F)F)c2)C3=O)cc1)NO` [Compound 72, (E)-3-(4-(((6-((E)-3,5-bis(trifluoromethyl)benzylidene)-5-oxo-5,6,7,8-tetrahydronaphthalen-2-yl)oxy)methyl)phenyl)-N-hydroxyacrylamide], in assay [1], the inhibition at 2 µM was below 50%, the inhibition at 10 µM is below 50% and the inhibition at 50 µM was in the range of 50 to 80%. In assay [2], the inhibition at 2 µM is below 50%, the inhibition at 10 µM is below 50% and the inhibition at 50 µM was 50 to 80%. Also, in assay [3], the inhibition at 2 µM was below 50%, the inhibition at 10 µM was below 50% and the inhibition at 50 µM was 50 to 80%. Besides, in assay [4], the inhibition at 4 µM is 50 to 80%, the inhibition at 20 µM was in the range of 50 to 80% and the inhibition at 50 µM lay within 50 to 80%.

In the case of `O=C(/C=C/c1ccc(COc2ccc3c(c2)CCC(Cc2cc(C(F)(F)F)cc(C(F)(F)F)c2)C3=O)cc1)NO` (stereo not drawn) [Compound 73, (E)-3-(4-(((6-(3,5-bis(trifluoromethyl)benzyl)-5-oxo-5,6,7,8-tetrahydronaphthalen-2-yl)oxy)methyl)phenyl)-N-hydroxyacrylamide], in assay [1], the inhibition at 2 µM is below 50%, the inhibition at 10 µM is below 50% and the inhibition at 50 µM was below 50%. In addition, in assay [2], the inhibition at 2 µM was below 50%, the inhibition at 10 µM was below 50% and the inhibition at 50 µM was below 50%. Besides, in assay [3], the inhibition at 2 µM is below 50%, the inhibition at 10 µM is below 50% and the inhibition at 50 µM is below 50%. In assay [4], this compound registered an inhibition at 4 µM below 50%, an inhibition at 20 µM below 50% and an inhibition at 50 µM below 50%.

In the case of `O=C(CCCCCNC(=O)COc1ccc2c(c1)CC/C(=C\c1cc(C(F)(F)F)cc(C(F)(F)F)c1)C2=O)NO` [Compound 74, (E)-6-(2-((6-(3,5-bis(trifluoromethyl)benzylidene)-5-oxo-5,6,7,8-tetra-hydronaphthalen-2-yl)oxy)acetamido)-N-hydroxyhexanamide], in assay [1], the inhibition at 2 µM was below 50%, the inhibition at 10 µM was above 80% and the inhibition at 50 µM was above 80%. Also, in assay [2], the inhibition at 2 µM lay in the range of 50 to 80%, the inhibition at 10 µM was above 80% and the inhibition at 50 µM is above 80%. For the same compound, in assay [3], the inhibition at 2 µM was below 50%, the inhibition at 10 µM is above 80% and the inhibition at 50 µM was above 80%. In assay [4], this compound returned an inhibition at 4 µM above 80%, an inhibition at 20 µM above 80% and an inhibition at 50 µM above 80%.

With `O=C(/C=C/c1ccc(CNC(=O)COc2ccc3c(c2)CC/C(=C\c2cc(C(F)(F)F)cc(C(F)(F)F)c2)C3=O)cc1)NO` [Compound 75], in assay [1], the inhibition at 2 µM was below 50%, the inhibition at 10 µM is below 50% and the inhibition at 50 µM was in the range of 50 to 80%. Also, in assay [2], the inhibition at 2 µM was below 50%, the inhibition at 10 µM was below 50% and the inhibition at 50 µM was in the range of 50 to 80%. Further, in assay [3], the inhibition at 2 µM was below 50%, the inhibition at 10 µM is below 50% and the inhibition at 50 µM fell in the range of 50 to 80%. In assay [4], this compound yielded an inhibition at 4 µM of 50 to 80%, an inhibition at 20 µM of 50 to 80% and an inhibition at 50 µM of 50 to 80%.

Turning to `Nc1cc(F)ccc1NC(=O)c1ccc(COc2ccc3c(c2)CC(Cc2cc(C(F)(F)F)cc(C(F)(F)F)c2)C3=O)cc1` (stereo not drawn) [Compound 76, N-(2-amino-4-fluorophenyl)-4-(((2-(3,5-bis(trifluoromethyl)benzyl)-1-oxo-2,3-dihydro-1H-inden-5-yl)oxy)methyl)benzamide], in assay [1], the inhibition at 2 µM was below 50%, the inhibition at 10 µM was below 50% and the inhibition at 50 µM is below 50%. For the same compound, in assay [2], the inhibition at 2 µM is below 50%, the inhibition at 10 µM is below 50% and the inhibition at 50 µM was below 50%. In addition, in assay [3], the inhibition at 2 µM is below 50%, the inhibition at 10 µM was below 50% and the inhibition at 50 µM is below 50%. In assay [4], this compound gave an inhibition at 4 µM below 50%, an inhibition at 20 µM below 50% and an inhibition at 50 µM below 50%.
